Experimental data published in paper PMC7793531 (International Journal of Molecular Sciences, 2020).
Entries after “also recorded” stand apart in the source; their conditions may differ. Starred links: 1 amine or outer side, 2 acyl side, 3 side chain; linkers in the order of their positions; H or OH if unused. Non-standard residues stand in square brackets, D forms with d. Residues, ends and D or L forms follow the SMILES beside them. Groups on a side chain read outwards from the residue. ξ: configuration not given here. *: point of attachment. Oic(3aξ,7aξ) = O=C(O)[C@@H]1CC2CCCCC2N1; hArg = N=C(N)NCCCC[C@H](N)C(=O)O; X1 = N=C(N)NCCCC[C@H](N)CN*; X3 = N=C(N)NCCC[C@H](N)CN*; X2 = N=C(N)NCC[C@H](N)CN*; Orn = NCCC[C@H](N)C(=O)O; Dab = NCC[C@H](N)C(=O)O; CO = O=C([*:1])[*:2]

Test system: not listed separately
Assay: Human blood serum
Conditions: 37 °C, up to 96 h

**Q.** Which results are given for H2N-DapU(ArgU)-Dab-Oic-Arg-OH?
**A.** cleaved bond: OicL3-ArgL4; not cleaved: urea bonds remained intact within the monitored time of the experiment

**Q.** For H2N-LysU(gDab)-Dab-Oic-Arg-OH, which cleaved bond is on record?
**A.** The cleaved bond was “gDabL1'-Lys^UL1; also recorded: OicL3-ArgL4”.

**Q.** What about the fragment found of the same molecule?
**A.** The fragment found was “C25H49N10O5+ (RT 5.43 min)”.

**Q.** What about the not cleaved of the same molecule?
**A.** The not cleaved was “urea bonds remained intact within the monitored time of the experiment”.

**Q.** Which cleaved bond does the source give for “H-Dab(hArg^U)Dab-Oic-Arg-OH (H-[Dab]([CO-X1])[Dab][Oic(3aξ,7aξ)]R-OH; SMILES N=C(N)NCCCC[C@H](N)CNC(=O)NCC[C@H](N)C(=O)N[C@@H](CCN)C(=O)N1C2CCCCC2C[C@H]1C(=O)N[C@@H](CCCNC(=N)N)C(=O)O)” here?
**A.** Its cleaved bond is “OicL3-ArgL4; also recorded: DabL1-DabL2”.

**Q.** And the fragment found?
**A.** Its fragment found is “C25H49N10O5+ (RT 5.36/5.72 min); also recorded: C25H46N10O4+ (RT 6.44/6.64 min); also recorded: C19H36N7O4+ (RT 3.53 min); also recorded: C12H27N7O3+ (RT 1.21 min)”.

**Q.** And the not cleaved?
**A.** Its not cleaved is “urea bonds remained intact within the monitored time of the experiment”.

**Q.** For “Lys(hArg)-Dab-Oic-Arg (H-K(hArg)[Dab][Oic(3aξ,7aξ)]R-OH)”, which cleaved bond is on record?
**A.** The cleaved bond was “hArgL1'-LysL1, major; also recorded: LysL1-DabL2; also recorded: OicL3-ArgL4”.

**Q.** And the fragment found?
**A.** The fragment found was “C25H48N9O5+ (RT 2.87 min); also recorded: C19H36N7O4+ (RT 3.54 min)”.

Test system: not listed separately
Assay: In vitro enzymatic stability in human blood serum (LC-SWATH-MS)
Format: in vitro ADME
Conditions: human blood serum (pooled from four healthy persons), 37 °C, after 24 h, read-out: initial substrate concentration remaining
Experimental: Rapid renal clearance and enzymatic degradation are classified as most important disadvantages of peptides as drugs. Covalent linkage to plasma proteins or chemical modifications, including amide bond modifications, might improve their half-lives. We performed proteolytic stability studies in human blood serum to investigate whether the introduction of urea bonds affected the half-lives of compounds from each of synthesized group of hybrids. Compounds 3, 6 and 7 were incubated with human serum at 37 °C. Samples were taken at different time intervals and analyzed using LC-SWATH-MS [88, 89, 90]. […] Hybrids 6 and 7 were stable toward enzymatic degradation, with 50% of each compound still being intact after 96 h (Figure 5). […] Overall, it can be concluded that the substitution of an amide bond with a urea bond has a positive effect on the proteolytic stability of the examined inhibitors.
The study was conducted in full accordance with ethical principles in accordance with the ICH E6 (R2) Guideline for Good Clinical Practice and the Code of Good Customs in Science developed by the Polish Academy of Sciences. Signed consent for using serum was obtained from volunteers. The Rector’s Commission for Ethics of Scientific Research with Human Participation, University of Warsaw, Warsaw, Poland gave the ethical approval (approval number 51/2020). Human blood from four healthy persons was directly drawn into evacuated tubes and left undisturbed at room temperature for 1 h to clot. Tubes were centrifuged at 2500× g for 10 min to prevent possible platelet activation. Serum was pipetted out of the blood collection tubes, pooled and collected in microtubes.
A degradation assay was adapted from a method described previously. Human blood serum was preactivated in Eppendorf ThermoMixer® Comfort (Hamburg, Germany) at 37 °C for 20 min (350 rpm). Next, 20 μL of aqueous urea–peptide hybrid stock solution was added to give ∼750 μg/mL final compound concentration, and incubation was continued. At selected time intervals, 50 μL of the mixture was collected and quenched by adding 200 μL of ACN:H2O:FA mixture (89:10:1, v:v:v). The obtained suspension was vortexed for 1 min (3000 min^−1) and centrifuged for 10 min in 4 °C (11,000× g). 100 μL of supernatant was collected and lyophilized. The samples reconstituted in 1 mL of 10 mM ammonium formate with 0.1% FA were subjected to LC-MS. Relative concentration at time intervals was calculated using peak area of either individual or most intense fragment of compound of interest. Analyst software version 1.7.1 was used for data acquisition, Peak View 2.2 and MultiQuant 2.1 (Sciex, ON) were used for data processing. Detailed analytical data can be found in Supplementary Materials (Figures S17–S45). […]

**Q.** With `N=C(N)NCCC[C@H](NC(=O)[C@@H]1CC2CCCCC2N1C(=O)[C@H](CCN)NC(=O)NC[C@@H](N)CCCCNC(=O)[C@@H](N)CCNC(=N)N)C(=O)O` (some centres unmarked) [Compound 3] as the molecule, how does the remaining at 24 h read?
**A.** Its remaining at 24 h is ~25%.

Same assay, conditions: human blood serum (pooled from four healthy persons), 37 °C, after 96 h, read-out: compound still intact

**Q.** Which remaining at 96 h does the source give for `N=C(N)NCCC[C@H](N)CNC(=O)NC[C@H](N)CNC(=O)N[C@@H](CCN)C(=O)N1C2CCCCC2C[C@H]1C(=O)N[C@@H](CCCNC(=N)N)C(=O)O` (some centres unmarked) [Compound 7] here?
**A.** The remaining at 96 h was 50%.

Molecular target: T1, VEGF-A165/NRP-1 complex (Homo sapiens, UniProt O14786)
T1 construct: purchased R&D Systems
T1 sequence (O14786 22-641 limits assumed): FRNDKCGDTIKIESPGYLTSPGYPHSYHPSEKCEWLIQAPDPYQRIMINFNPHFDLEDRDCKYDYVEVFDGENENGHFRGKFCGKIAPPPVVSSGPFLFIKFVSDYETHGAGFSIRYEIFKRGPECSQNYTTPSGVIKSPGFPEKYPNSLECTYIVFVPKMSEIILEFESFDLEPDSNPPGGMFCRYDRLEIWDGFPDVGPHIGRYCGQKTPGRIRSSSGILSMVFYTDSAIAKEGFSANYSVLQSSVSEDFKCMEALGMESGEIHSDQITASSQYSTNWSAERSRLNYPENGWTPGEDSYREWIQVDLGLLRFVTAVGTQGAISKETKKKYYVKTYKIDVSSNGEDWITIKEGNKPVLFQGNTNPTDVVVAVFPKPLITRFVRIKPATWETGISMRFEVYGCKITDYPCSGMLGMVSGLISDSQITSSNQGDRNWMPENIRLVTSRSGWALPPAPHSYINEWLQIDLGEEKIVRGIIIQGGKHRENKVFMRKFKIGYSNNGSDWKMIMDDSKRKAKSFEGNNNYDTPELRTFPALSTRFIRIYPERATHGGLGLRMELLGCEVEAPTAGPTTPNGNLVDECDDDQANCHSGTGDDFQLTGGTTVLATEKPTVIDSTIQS
Assay: Competitive ELISA-like assay, inhibition of bt-VEGF-A165 binding to immobilized NRP-1
Conditions: recombinant human NRP-1, bt-VEGF-A165, chemiluminescence; read-out: IC50, VEGF-A165/NRP-1 complex inhibitory effect
Experimental: Inhibitory activity of urea–peptide hybrids against VEGF-A165/NRP-1 complex formation was assessed with a screening ELISA-like assay. NRP-1 was immobilized on microplate wells by simple adsorption and urea–peptide hybrids competed for NRP-1 with biotinylated VEGF-A165 (bt-VEGF-A165). The amount of receptor bound bt-VEGF-A165 was visualized by its interaction with the streptavidin–horseradish peroxidase conjugate (strep-HRP) and the chemiluminescent substrate. The first analyzed group of compounds were analogues 1–3 with the urea bond between L1 and L2. […] The best hybrid in this group was compound 3, which had Lys^U (gDab) branching (where “g” corresponds to guanidinium group), but its IC50 value decreased only 2-fold. Therefore, we assume that no additional interactions between urea bond and the surface of the protein occurred. […] In the case of urea–peptide hybrids, the urea bond might be capable of forming additional hydrogen bonds with protein residues on the surface of NRP-1. The affinity of compounds may conceivably be affected by the colocation of the urea bond and the free amino group of hArg in the branching. In addition, for compounds 4–6, we can observe that decreasing the distance between the free amino group in the main chain and the urea bond in the branching has a positive effect on compounds’ affinity for NRP-1.
This method was previously described for NRP-1 [44, 45, 46]. Briefly, overnight coating at 4 °C of the flat bottom surface of a 96-well plate with 100 μL (200 ng/well) recombinant human NRP-1, NRP-2, VEGFR-1 or VEGFR-2 was followed by non-specific interactions blocking using 0.5% bovine serum albumin (BSA) in PBS. Next, 50 µL of urea–peptide hybrid in PBS and 50 µL (400 ng/mL) of human (bt)-VEGF-A165 in PBS containing 4 µg/mL of heparin were added respectively. Plates were incubated for 2 h at RT, and then washed and treated with streptavidin-horseradish peroxidase conjugate in PBS (1:8000). Next, 100 µL chemiluminescent substrate was added, and luminescence was quantified using Tecan Infinite F200Pro microplate reader (Männedorf, Switzerland). In a positive control (P) only (bt)-VEGF-A165 was present in wells. Not coated by receptor wells were treated as a negative control (N). Percentages of inhibition were calculated by the following formula:100% − [[(S − N)/(P − N)]∙100%](1) where S is the signal intensity measured in wells with urea–peptide hybrid. The IC50 of each urea–peptide hybrid was calculated using the nonlinear regression function with GraphPad Prism Version-5.01 (GraphPad Software, San Diego, CA, USA). Data are presented as log (inhibitor) versus normalized response-variable slope (Figure S16). Data are the means ± SEMs of two or three independent experiments, each performed in triplicate.

**Q.** With `N=C(N)NCCCC[C@H](N)C(=O)NCC[C@H](N)CNC(=O)N[C@@H](CCN)C(=O)N1C2CCCCC2C[C@H]1C(=O)N[C@@H](CCCNC(=N)N)C(=O)O` (some centres unmarked) [Compound 1] as the molecule, how does the IC50 read?
**A.** The IC50 was 1.8 µM.

**Q.** For `N=C(N)NCCC[C@H](NC(=O)[C@@H]1CC2CCCCC2N1C(=O)[C@H](CCN)NC(=O)NC[C@@H](N)CCCNC(=O)[C@@H](N)CCCNC(=N)N)C(=O)O` (some centres unmarked) [Compound 2], which IC50 is on record?
**A.** Its IC50 is 2.1 µM.

**Q.** Which IC50 does the source give for `N=C(N)NCCC[C@H](NC(=O)[C@@H]1CC2CCCCC2N1C(=O)[C@H](CCN)NC(=O)NC[C@@H](N)CCCCNC(=O)[C@@H](N)CCNC(=N)N)C(=O)O` (some centres unmarked) [Compound 3] here?
**A.** The IC50 was 1.2 µM.

**Q.** With `N=C(N)NCCC[C@H](NC(=O)[C@@H]1CC2CCCCC2N1C(=O)[C@H](CCN)NC(=O)[C@@H](N)CCCCNC(=O)NC[C@@H](N)CCNC(=N)N)C(=O)O` (some centres unmarked) [Compound 4] (H-K([CO-X2])[Dab][Oic(3aξ,7aξ)]R-OH) as the molecule, how does the IC50 read?
**A.** Its IC50 is 0.49 µM.

**Q.** Which IC50 does the source give for `N=C(N)NCCC[C@H](N)CNC(=O)NCCC[C@H](N)C(=O)N[C@@H](CCN)C(=O)N1C2CCCCC2C[C@H]1C(=O)N[C@@H](CCCNC(=N)N)C(=O)O` (some centres unmarked) [Compound 5] (H-[Orn]([CO-X3])[Dab][Oic(3aξ,7aξ)]R-OH) here?
**A.** The IC50 was 0.36 µM.

**Q.** For `N=C(N)NCCC[C@H](N)CNC(=O)NC[C@H](N)CNC(=O)N[C@@H](CCN)C(=O)N1C2CCCCC2C[C@H]1C(=O)N[C@@H](CCCNC(=N)N)C(=O)O` (some centres unmarked) [Compound 7], which IC50 is on record?
**A.** The IC50 was 2.1 µM.

**Q.** Which IC50 does the source give for `N=C(N)NCCC[C@H](NC(=O)[C@@H]1CC2CCCCC2N1C(=O)[C@H](CCN)NC(=O)NC[C@@H](N)CCNC(=O)NC[C@@H](N)CCNC(=N)N)C(=O)O` (some centres unmarked) [Compound 8] here?
**A.** Its IC50 is 2.1 µM.

**Q.** Which IC50 does the source give for `N=C(N)NCCC[C@H](NC(=O)[C@@H]1CC2CCCCC2N1C(=O)[C@H](CCN)NC(=O)NC[C@@H](N)CCCNC(=O)NC[C@@H](N)CNC(=N)N)C(=O)O` (some centres unmarked) [Compound 9] here?
**A.** Its IC50 is 1.8 µM.
